The source of these data is paper PMC8124269 (Molecules, 2021).

Series [1] relates to SARS-CoV-2. In words: microbe, parasite or virus in culture. It is filed as cell-based. As to conditions: for effect on viral replication: infected Vero E6 cells, MOI 0.01, 48 and 72 hpi.
Series [2] has as its system N NTD oligomerization induced by 48-mer DNA. It counts as biochemical. The following applies: for Oligomer Inhibition/Enhancement / Oligomer Size (hydrodynamic diameter Dh of DNA-NTD complex): NTD (60 µM) monomer, [compound] = 37.5 µM, [48-mer] = 29.4 µM; for Oligomer Size (hydrodynamic diameter Dh of DNA-NTD complex): 20 °C, without ligand 15.7 ± 0.7.
Series [3] concerns COX. As to conditions: cited from earlier work; for COX Inhibition: which COX is inhibited, ref 11 (given for naproxen A and C0).
Series [4] in a line: Cytotoxicity in Vero E6 cells. The following applies: African green monkey.
In series [5] the test system is Influenza A virus. The following applies: cited from earlier work.
Series [6] is described as follows: in vitro. As to conditions: African green monkey.
The subject of series [7] is SARS-CoV-2. Further details: method as in PMID 33441348. As to conditions: cited from earlier work.
In series [8] the test system is wild type N-NTD. Further details: method as in PMID 22272272. The following applies: hexachlorofluorescein labeled ssRNA titrated with N-NTD; read-out: KD of RNA binding to N-NTD; cited from earlier work.
Series [9] deals with viral 3C-like protease. The following applies: cited from earlier work.
Series [10] has as its system SARS-CoV-2 in nasal HAE. As to conditions: 90 µM or 300 µM, postinfection treatment, 48 hpi.
Series [11] has as its target SARS-CoV-2 N-NTD (monomer) with labeled 10-mer RNA (Severe acute respiratory syndrome coronavirus 2, UniProt P0DTC9). In words: biochemical. The following applies: read-out: N Binding, Fluo Anisotropy (KD, displacement of RNA).
[12] abbreviates: Vero E6, MOI 0.01, treatment 1 hpi.

Entries after “also recorded” stand apart in the source; their conditions may differ. Like-named read-outs stand apart in the source and are kept apart here. Bounds are passed on as bounds.

On to `Cc1ccc(-c2cc(C(F)(F)F)nn2-c2ccc(S(N)(=O)=O)cc2)cc1` [Celecoxib], for which the “Mean IC50 (viral replication)” value in series [1] (setting [12]) is on record as “proviral”. Besides, the “effect on viral replication” value in series [1] is “No inhibition of viral replication; also recorded: did not present a clear antiviral effect”. For the same compound, the “Oligomer Inhibition/Enhancement” value in series [2] (listed as celecoxib) is on record as “enhanced the formation of large species”. The “Oligomer Size, large particles formed” value in series [2] (compound in DMSO, compared to N + DMSO (12 nm)) is listed as “^7 Formation of large particles of 3 µm as compared to N + DMSO (12 nm)”. Also, in [3], the “COX Inhibition” value is reported as “COX2”. In series [4], this compound registered a CC50 of 80 µM and a CC50 at 48 h post infection of 83 µM.
Turning to `COc1ccc2cc(C(CCC(=O)O)C(=O)O)ccc2c1` (stereo not drawn) [Naproxen A], the “Mean IC50 (viral replication)” value in series [1] (setting [12]) is reported as “No inhibition”. Moreover, the “effect on viral replication” value in [1] was “did not reduce viral replication”. In series [5], the “antiviral effect against Influenza A virus” value is “no antiviral effect”. In series [6], this compound showed a CC50 greater than 1 mM, a CC50 at 48 h post infection greater than 1 mM and a CC50 at 72 h post infection greater than 1 mM. For the same compound, in series [2], the “Oligomer Size (hydrodynamic diameter Dh of DNA-NTD complex)” value came to 16.0 ± 0.8 nm. For the same compound, in [3], the “ability to inhibit COX” value is given as “lacked the ability to inhibit COX”.
For `Cc1cnc(NC(=O)C2=C(O)c3ccccc3S(=O)(=O)N2C)s1` [meloxicam], the “effect on SARS-CoV-2 entry or replication in vitro” value in series [7] is “did not affect SARS-CoV-2 entry or replication in vitro”.
Regarding “10-mer RNA: fluorescently labeled RNA UCUCUAAACG labeled with 5′-hexachlorofluorescein”, the dissociation constant Kd in [8] was 8.3 ± 0.8 µM.
On to `CC(=O)Nc1ccc(O)cc1` [Acetaminophen (paracetamol), Acetaminophen], for which, in series [1] (setting [12]), the “Mean IC50 (viral replication)” value was “No inhibition”. In addition, the “effect on viral replication” value in series [1] is “No inhibition of viral replication; also recorded: mainly not affecting viral replication”. For the same compound, in series [2], the “Oligomer Inhibition/Enhancement” value was “did not modify NTD oligomerization” and the “Oligomer Size (hydrodynamic diameter Dh of DNA-NTD complex)” value came to 14.0 ± 1.0 nm. The “COX Inhibition” value in series [3] is “COX1 + COX2 ? ^1”. In series [4], this compound registered a CC50 greater than 400 µM, a CC50 at 48 h post infection greater than 400 µM and a CC50 at 72 h post infection greater than 400 µM.
For `COc1ccc2cc([C@H](C)C(=O)O)ccc2c1` [Naproxen, naproxen], the IC50 in series [9] is 3.45 µM; in [1] (Severe acute respiratory syndrome coronavirus 2, Vero C1008, Vero E6, MOI 0.01, unique treatment at 1 hpi, 48 hpi) it was 46.1 µM; in series [1] (Severe acute respiratory syndrome coronavirus 2, Vero C1008, Vero E6, MOI 0.01, unique treatment at 1 hpi, 72 hpi), 59.5 µM; in series [1] (Severe acute respiratory syndrome coronavirus 2, Vero C1008, read-out: Mean IC50 (viral replication), Vero E6, MOI 0.01, treatment 1 hpi) it was 50 ± 10 µM; in series [1] (read-out: Mean IC50 (viral replication), Vero E6, MOI 0.01, treatment 1 hpi), 52 ± 6 µM; in [5] (MOI = 10^−2), 25 ± 7 µM. Also, the “antiviral effect versus mock-treated control” value in series [10] is given as “did not show an antiviral effect”. Moreover, the “Oligomer Size (hydrodynamic diameter Dh of DNA-NTD complex)” value in series [2] was found to be 7.9 ± 0.3 nm. Also, the “COX Inhibition” value in series [3] is listed as “COX1 + COX2”.
`CC(C)Cc1ccc(C(C)C(=O)O)cc1` (stereo not drawn) [ibuprofen]: the “effect on SARS-CoV-2 entry or replication in vitro” value in series [7] is listed as “did not affect SARS-CoV-2 entry or replication in vitro”.
For `COc1ccc2cc(-c3c(C(=O)O)cccc3C(=O)O)ccc2c1` [Naproxen C0], the Kd in series [11] came to 1600 nM. Besides, the IC50 in [1] (Severe acute respiratory syndrome coronavirus 2, Vero C1008, Vero E6, MOI 0.01, treatment 1 hpi, read-out: Mean IC50 (viral replication)) turned out to be 75 ± 25 µM; in [1] (Severe acute respiratory syndrome coronavirus 2, Vero C1008, Vero E6, MOI 0.01, unique treatment at 1 hpi, 48 hpi, read-out: IC50) it was 101 µM; in series [1] (Severe acute respiratory syndrome coronavirus 2, Vero C1008, Vero E6, MOI 0.01, unique treatment at 1 hpi, 72 hpi, read-out: IC50), 45.1 µM; in [1] (Vero E6, MOI 0.01, treatment 1 hpi, read-out: Mean IC50 (viral replication)) it was 73 ± 25 µM. This compound came in with a CC50 in series [6] greater than 1 mM. For the same compound, the CC50 at 48 h post infection in series [6] was greater than 1 mM. In series [6], this compound showed a CC50 at 72 h post infection greater than 1 mM. In addition, in series [2], the “Oligomer Size (hydrodynamic diameter Dh of DNA-NTD complex)” value is 12.7 ± 0.7 nm. The “ability to inhibit COX” value in [3] is given as “lacked the ability to inhibit COX”.
